These results are taken from US4603134A, “Piperazine derivative and pharmaceutical composition containing the same” (Ferrer International, S.A., priority 1984, dated 1986).

The nature of assay [1]: Activity on the blood stream (vasoactive, antiarrhythmic, hypotensor). Particulars: no test described.
The subject of assay [2] is isolate of guinea-pig ileum. Briefly: Anti-histamine activity in an isolate of guinea-pig ileum, suspended in a Tyrode bath at 32°-35° C. Particulars: for IC50: Cavia porcellus, isolated guinea-pig ileum, Tyrode bath, 32°-35° C., read-out: anti-histamine activity, ED50. The procedure: The anti-histamine activity was tested in an isolate of guinea-pig ileum, suspended in a Tyrode bath at 32°-35° C. according to a protocol described by R. A. Turner (Screening Methods in Pharmacology, Academic Press, 1965, p. 43).

For assay [3], the system named is isolate of guinea-pig ileum. To be noted: background statement on the non-fluorine analog; cited from earlier work.

With `Fc1ccc(C(c2ccc(F)cc2)N2CCN(CCCC3(c4ccccc4)OCCO3)CC2)cc1` [Example 1, 1-(4,4'-difluorobenzhydryl)-4-(2-phenyl-1,3-dioxolane-2-propyl)piperazine], in assay [1], the “activity on the blood stream (in words)” value is given as “strong activity on the blood stream”. Further, in assay [2], the IC50 came out at 150 nM. In assay [2] (versus non-fluorine analog (Spanish Pat. No. 514 340)), the “antihistaminic effect compared with non-fluorine analog (in words)” value is “higher than that of its non-fluorine analog”.

On to `c1ccc(C(c2ccccc2)N2CCN(CCCC3(c4ccccc4)OCCO3)CC2)cc1` [Spanish Pat. 514 340, reference compound], for which the IC50 in assay [2] stood at 350 nM. Moreover, the “anti-histaminic effect (in words)” value in assay [3] is listed as “unsatisfactory”.
